Earlier results as cited in US9107921B2, “Oral dosage forms for oxygen containing active agents and oxyl-containing polymers” (Spriaso LLC, priority 2012, dated 2015).
Structures can show the parent of a compound that is named as a salt.

Tests used:
[1] = for plasma half-life: in vivo

COc1ccc2c3c1O[C@H]1C(=O)CC[C@H]4[C@@H](C2)N(C)CC[C@]314 [Hydrocodone]
plasma half-life [1]: 3.8 to 6 h

CC(C)NCC(O)COc1cccc2ccccc12 (centres unmarked) [propranolol HCl]
time to 50% drug release in vitro (matrix tablet, HPMC (Methocel K4M) to active agent ratio 1:0.3 by weight): about 4 hours

COc1ccc2c3c1O[C@H]1[C@@H](O)C=C[C@H]4[C@@H](C2)N(C)CC[C@@]341 [codeine, 3-methylmorphine]
plasma half-life [1]: 2.5 to 3 h

CN(C)CCC(c1ccc(Cl)cc1)c1ccccn1 (centres unmarked) [chlorpheniramine, Chlorpheniramine]
time to 50% in vitro drug release (single-layer matrix tablet, HPMC polymer (Methocel K4M) to active ratio of about 1:1): about 3.5 hours
time to peak plasma concentration ([1]; following oral administration): 2 to 3 h
